# In patent publication US4086221A, “Polypeptides and process for producing the same” (Toyo Jozo Kabushiki Kaisha, priority 1975, dated 1978):
# Where a SMILES comes first, the peptide text is derived from it. Bridges are numbered along the chain shown (N, C = ends). [ ]: non-standard residue; d: D form. Asu = N[C@@H](CCCCCC(=O)O)C(=O)O
# Test system: Male rats
# Experiment: Assay method for serum calcium reducing activity (potency against Research Standard B)
# Assay type: in vivo, rat
# Details: intravenous injection 0.2 ml, serum calcium 1 hour after injection, versus Research Standard B
# Method: The assay method for serum calcium reducing activity, the carrier and developing system for thin layer chromatography and conditions for amino acid analysis are as follows:
# Sample is diluted adequately with 0.1 N sodium acetate - 0.1% albumin solution. Male rats are subjected individually to intravenous injection with 0.2 ml. of the respective diluted solutions. After 1 hour, all the rats are killed to obtain their respective blood, and serum calcium value of each blood sample is determined by atomic absorption spectrophotomery. On the other hand, Research Standard B, which is an extract obtained from the thyroid gland of the hog, is diluted so as to give dilutions of 2.5, 5, 10 and 20 MRC mU/0.2 ml. respectively. Male rats are subjected to intravenous injection with 0.2 ml. of the respective diluted solutions. Following the same procedure as above, the serum calcium value of the rats is determined one hour after injection. From the potency of the corresponding Research Standard, the potency of the calcitonin in the sample is determined.
structure (smiles),measurement,value
CC(C)C[C@H](NC(=O)[C@H](CCCCN)NC(=O)CNC(=O)[C@H](CC(C)C)NC(=O)[C@@H](NC(=O)[C@@H]1CCCCCC(=O)N[C@@H](CO)C(=O)N[C@@H](CC(N)=O)C(=O)N[C@@H](CC(C)C)C(=O)N[C@@H](CO)C(=O)N[C@@H]([C@@H](C)O)C(=O)N1)C(C)C)C(=O)N[C@@H](CO)C(=O)N[C@@H](CCC(N)=O)C(=O)N[C@@H](CCC(=O)O)C(=O)N[C@@H](CC(C)C)C(=O)N[C@@H](Cc1c[nH]cn1)C(=O)N[C@@H](CCCCN)C(=O)N[C@@H](CC(C)C)C(=O)N[C@@H](CCC(N)=O)C(=O)N[C@H](C(=O)N[C@@H](Cc1ccc(O)cc1)C(=O)N1CCC[C@H]1C(=O)N[C@@H](CCCNC(=N)N)C(=O)N[C@H](C(=O)N[C@@H](CC(=O)O)C(=O)N[C@H](C(=O)NCC(=O)N[C@@H](C)C(=O)NCC(=O)N[C@H](C(=O)N1CCC[C@H]1C(N)=O)[C@@H](C)O)C(C)C)[C@@H](C)O)[C@@H](C)O [Example 1] (SNLST[Asu]VLGKLSQELHKLQTYPRTDVGAGTP-NH2; lactam N-6),potency of the purified product (serum calcium reducing activity),3450 MRC U/mg.
